{"source": "patent US20040058969A1", "about": "“Novel epothilone derivatives, method for the preparation thereof and their pharmaceutical use” (priority 2000, published 2004)", "origin": "cited, not measured here", "tested_on": "P-glycoprotein-forming multiresistant tumor lines", "conditions": "in vitro, relative to taxol"}
{"compound": "C/C(=C\\c1csc(C)n1)[C@@H]1C[C@@H]2O[C@@H]2CCC[C@H](C)[C@H](O)[C@@H](C)C(=O)C(C)(C)[C@@H](O)CC(=O)O1", "note": "[Epothilone A, epothilone A]", "values": [{"measurement": "activity against P-glycoprotein-forming multiresistant tumor lines in comparison to taxol", "result": "significantly higher activity"}]}
{"compound": "C/C(=C\\c1csc(C)n1)[C@@H]1C[C@@H]2O[C@]2(C)CCC[C@H](C)[C@H](O)[C@@H](C)C(=O)C(C)(C)[C@@H](O)CC(=O)O1", "note": "[Epothilone B, epothilone B]", "values": [{"measurement": "activity against P-glycoprotein-forming multiresistant tumor lines in comparison to taxol", "result": "significantly higher activity"}]}
